Patent publication US20190160131A1, “METHOD FOR CELL REJUVENATION USING ROSA ROXBURGHII FRUIT EXTRACTS” (TCI CO., LTD, priority 2017, published 2019)

System: human skin fibroblast CCD-966SK
Assay: Chemical (etoposide)-induced telomere shortening, telomere length by qPCR
Assay type: cell-based
Settings: 30 μM etoposide only, 5 days of incubation, compared to control cells (FIG. 8)
Description: Telomere length is determined based on qPCR technique. First, genomic DNA samples were extracted from cells. Next, the genomic DNA samples (20 ng) were subjected to qPCR to obtain melting curves. The qPCR was performed with a PCR thermocycler using KAPA CYBR FAST qPCR Kit (2×) (KAPA Biosystems) and primers of the telomere and the single-copy 36B4 gene (Table 2). In addition, serially diluted standards of the telomere (10- to 10^6-fold dilutions starting from 60 pg) and the 36B4 gene (10- to 10^6-fold dilutions starting from 200 pg) were prepared and subjected to qPCR under the following reaction conditions to obtain standard curves (Ct/kb): a denaturation phase at 95° C. for 10 minutes followed by 40 cycles of denaturation (95° C.) for 15 seconds and annealing (60° C.) for 1 minute. The telomere standard was an oligonucleotide having 14 repeats of TTAGGG (SEQ ID NO: 7); the standard of 36B4 gene had the nucleotide sequence of SEQ ID NO:8. Lastly, the average length of telomere in the genomic DNA samples was determined from the aforementioned standard curves and the cycle threshold values of telomere and 36B4 gene in the genomic DNA samples.
The protective effect of Rosa roxburghii fruit water extract on chromosomal telomere was investigated in human skin fibroblast CCD-966SK. […]

SMILES: COc1cc([C@@H]2c3cc4c(cc3[C@@H](O[C@@H]3O[C@@H]5CO[C@@H](C)O[C@H]5[C@H](O)[C@H]3O)[C@H]3COC(=O)[C@H]23)OCO4)cc(OC)c1O [etoposide]
- relative length of telomeres: significantly shortened
